# Measurements: US6984633B2, “Method to treat cardiofibrosis with a combination therapy of an angiotensin II antagonist and epoxymexrenone” (G.D Searle & Co., priority 1995, dated 2006)
# Test system: rabbit aortic rings
# Assay: Assay B: In vitro vascular smooth muscle response for AII, antagonist activity in aortic rings
# Type: cell-based
# Conditions: not given
# Procedure: Assay B: In Vitro Vascular Smooth Muscle-Response for AII
# The compounds of the invention were tested for antagonist activity in rabbit aortic rings. Male New Zealand white rabbits (2-2.5 kg) were sacrificed using an overdose of pentobarbital and exsanguinated via the carotid arteries. The thoracic aorta was removed, cleaned of adherent fat and connective tissue and then cut into 3-mm ring segments. The endothelium was removed from the rings by gently sliding a rolled-up piece of filter paper into the vessel lumen. The rings were then mounted in a water-jacketed tissue bath, maintained at 37° C., between moveable and fixed ends of a stainless steel wire with the moveable end attached to an FT03 Grass transducer coupled to a Model 7D Grass Polygraph for recording isometric force responses. The bath was filled with 20 ml of oxygenated (95% oxygen/5% carbon dioxide) Krebs solution of the following composition (mM); 130 NaCl, 15 NaHCO3, […], 1.2 NaH2PO4, 1.2 MgSO4, 2.5 CaCl2, and 11.4 glucose. The preparations were equilibrated for one hour before approximately one gram of passive tension was placed on the rings. Angiotensin II concentration-response curves were then recorded (3×10^−10 to 1×10^−5 M). Each concentration of AII was allowed to elicit its maximal contraction, and then AII was washed out repeatedly for 30 minutes before rechallenging with a higher concentration of AII. Aorta rings were exposed to the test antagonist at 10^−5 M for 5 minutes before challenging with AII. Adjacent segments of the same aorta ring were used for all concentration-response curves in the presence of absence of the test antagonist. The effectiveness of the test compound was expressed in terms of pA2 values and were calculated according to H. O. Schild [Br. J. Pharmacol. Chemother., 2, 189-206 (1947)]. The pA2 value is the concentration of the antagonist which increases the EC50 value for AII by a factor of two. Each test antagonist was evaluated in aorta rings from two rabbits.
row,SMILES,"Assay B pA2 column, result given as symbol"
1,CCCCc1nc(CCCN)n(Cc2ccc(-c3ccccc3-c3nnn[nH]3)cc2)n1 [Compound 71],* (Antagonist Activity not observed up to 10 μM of test compound.)

# Same assay, conditions: two determinations separated by /
row,SMILES,Assay B pA2
1,CCCc1nc(CCC)n(Cc2ccc(-c3ccccc3-c3nnn[nH]3)cc2)n1 [Compound 12],8.59
2,CCCCCc1nc(CCCCC)n(Cc2ccc(-c3ccccc3-c3nnn[nH]3)cc2)n1 [Compound 13],8.85
3,CCCCc1nc(CCC)nn1Cc1ccc(-c2ccccc2-c2nnn[nH]2)cc1 [Compound 14],8.71
4,CCCCc1nc(CCC)n(Cc2ccc(-c3ccccc3-c3nnn[nH]3)cc2)n1 [Compound 15],8.30
5,CCCCc1nc(CCC(C)C)n(Cc2ccc(-c3ccccc3-c3nnn[nH]3)cc2)n1 [Compound 16],9.24
6,CCCCc1nc(CCC(C)C)nn1Cc1ccc(-c2ccccc2-c2nnn[nH]2)cc1 [Compound 17],8.40
7,CCCCc1ncnn1Cc1ccc(-c2ccccc2C(=O)O)cc1 [Compound 18],6.09
8,CCCCc1ncn(Cc2ccc(-c3ccccc3C(=O)O)cc2)n1 [Compound 19],5.35
9,CCCCc1nc(-c2ccccc2)n(Cc2ccc(-c3ccccc3-c3nnn[nH]3)cc2)n1 [Compound 22],6.46
10,CCCCc1nc(C(OC)OC)nn1Cc1ccc(-c2ccccc2-c2nnn[nH]2)cc1 [Compound 24],7.73
11,CCCCc1nc(CCc2ccccc2)n(Cc2ccc(-c3ccccc3-c3nnn[nH]3)cc2)n1 [Compound 25],6.73
12,CCCCc1nc(CCc2ccccc2)nn1Cc1ccc(-c2ccccc2-c2nnn[nH]2)cc1 [Compound 26],9.66
13,CCCCc1nc(C(=O)CCC)nn1Cc1ccc(-c2ccccc2-c2nnn[nH]2)cc1 [Compound 30],7.88
14,CCCCc1nc(CNC(=O)OC(C)(C)C)nn1Cc1ccc(-c2ccccc2-c2nnn[nH]2)cc1 [Compound 35],7.47
15,CCCCc1nc(CN)n(Cc2ccc(-c3ccccc3-c3nnn[nH]3)cc2)n1 [Compound 36],5.68
16,CCCCc1nc(CC(OCC)OCC)n(Cc2ccc(-c3ccccc3-c3nnn[nH]3)cc2)n1 [Compound 37],6.85
17,CCCCc1nc(CC)nn1Cc1ccc(-c2ccccc2-c2nnn[nH]2)cc1 [Compound 39],7.84
18,CCCCc1nc(CNC(=O)CCC(NC(C)=O)C(=O)OC(C)(C)C)nn1Cc1ccc(-c2ccccc2-c2nnn[nH]2)cc1 (centres unmarked) [Compound 41],5.96
19,CCCCc1nc(CCC2CCCCC2)n(Cc2ccc(-c3ccccc3-c3nnn[nH]3)cc2)n1 [Compound 42],6.26
20,CCCCc1nc(CCCO)nn1Cc1ccc(-c2ccccc2-c2nnn[nH]2)cc1 [Compound 45],8.24
21,CCCCc1nc(CCCO)n(Cc2ccc(-c3ccccc3-c3nnn[nH]3)cc2)n1 [Compound 46],6.64
22,CCCCc1nc(C(F)F)nn1Cc1ccc(-c2ccccc2-c2nnn[nH]2)cc1 [Compound 47],7.58

row,SMILES,Assay B pA2
1,CCCCc1nc(C(=O)Cc2ccccc2)nn1Cc1ccc(-c2ccccc2-c2nnn[nH]2)cc1 [Compound 50],7.89
2,CCCCc1nc(C(F)(F)Cc2ccccc2)nn1Cc1ccc(-c2ccccc2-c2nnn[nH]2)cc1 [Compound 51],8.51
3,CCCCc1nc(C(=O)O)nn1Cc1ccc(-c2ccccc2-c2nnn[nH]2)cc1 [Compound 52],8.12
4,CCCCc1ncnn1Cc1ccc(-c2ccccc2-c2nnn[nH]2)cc1 [Compound 53],7.83
5,CCCCc1nc(CCCC2CCCCC2)nn1Cc1ccc(-c2ccccc2-c2nnn[nH]2)cc1 [Compound 58],6.57
6,CCCCc1nc(CC23CC4CC(CC(C4)C2)C3)nn1Cc1ccc(-c2ccccc2-c2nnn[nH]2)cc1 [Compound 62],8.61
7,CCCCc1nc(CCC(=O)O)nn1Cc1ccc(-c2ccccc2-c2nnn[nH]2)cc1 [Compound 63],7.67
8,CCCCc1nc(CCC(=O)O)n(Cc2ccc(-c3ccccc3-c3nnn[nH]3)cc2)n1 [Compound 64],6.77
9,CCCCc1nc(C2CCCCC2)n(Cc2ccc(-c3ccccc3-c3nnn[nH]3)cc2)n1 [Compound 65],7.75
10,CCCCc1nc(CCCNC(=O)OC(C)(C)C)n(Cc2ccc(-c3ccccc3-c3nnn[nH]3)cc2)n1 [Compound 67],5.78
11,CCCCc1nc(CCCN)nn1Cc1ccc(-c2ccccc2-c2nnn[nH]2)cc1 [Compound 72],6.10
12,CCCCc1nc(CC2CCCCC2)n(Cc2ccc(-c3ccccc3-c3nnn[nH]3)cc2)n1 [Compound 73],7.46
13,CCCCc1nc(CC2CCCCC2)nn1Cc1ccc(-c2ccccc2-c2nnn[nH]2)cc1 [Compound 74],8.39
14,CCCCc1nc(CC)n(Cc2ccc(-c3ccccc3C(=O)O)cc2)n1 [Compound 76],5.78
15,CCCCc1nc2c(OC(=O)C(C)C)nnc(O)c2n1Cc1ccc(-c2ccccc2-c2nnn[nH]2)cc1 [Compound 119],9.00
16,CCCCc1nc2c(OC(=O)C3CCCCC3)nnc(O)c2n1Cc1ccc(-c2ccccc2-c2nnn[nH]2)cc1 [Compound 120],8.77
17,CCCCc1nc2c(OC(=O)Cc3ccccc3)nnc(O)c2n1Cc1ccc(-c2ccccc2-c2nnn[nH]2)cc1 [Compound 124],9.12
18,CCCCc1nc(Cc2ccc(-c3ccccc3C(=O)O)cc2)n(CCCC)n1 [Compound 126],7.05
19,CCCCc1nc(Cc2ccc(-c3ccccc3-c3nnn[nH]3)cc2)n(CCCC)n1 [Compound 128],8.40
20,CCCCn1nc(C(F)(F)CCC)nc1Cc1ccc(-c2ccccc2-c2nnn[nH]2)cc1 [Compound 130],7.94
21,CCCCc1nc(Cc2ccc(-c3ccccc3-c3nnn[nH]3)nc2)n(CCCC)n1 [Compound 150],7.80
22,CCCCn1nc(CCc2ccccc2)nc1Cc1ccc(-c2ccccc2-c2nnn[nH]2)nc1 [Compound 151],7.97

row,SMILES,Assay B pA2
1,CCCCn1nc(CCC)nc1Cc1ccc(-c2ccccc2-c2nnn[nH]2)nc1 [Compound 152],7.23
2,CCCCn1nc(/C=C/c2cccs2)nc1Cc1ccc(-c2ccccc2-c2nnn[nH]2)nc1 [Compound 154],8.38
3,CCCCn1nc(-c2ccccc2Cl)nc1Cc1ccc(-c2ccccc2-c2nnn[nH]2)nc1 [Compound 158],8.14
4,CCCCn1nc(C(=O)CCC)nc1Cc1ccc(-c2ccccc2-c2nnn[nH]2)nc1 [Compound 160],7.71
5,CCCn1nc(C(C)(F)F)nc1Cc1ccc(-c2ccccc2-c2nnn[nH]2)nc1 [Compound 165],7.18
6,CCCCn1nc(C(C)(F)F)nc1Cc1ccc(-c2ccccc2-c2nnn[nH]2)nc1 [Compound 166],7.74
7,CCCn1nc(C(F)(F)CC)nc1Cc1ccc(-c2ccccc2-c2nnn[nH]2)nc1 [Compound 167],7.11
8,CCCCn1nc(C(F)(F)CC)nc1Cc1ccc(-c2ccccc2-c2nnn[nH]2)nc1 [Compound 168],7.58
9,CCCn1nc(C(F)(F)CCC)nc1Cc1ccc(-c2ccccc2-c2nnn[nH]2)nc1 [Compound 169],7.58
10,CCCCn1nc(C(=O)NC)nc1Cc1ccc(-c2ccccc2-c2nnn[nH]2)nc1 [Compound 172],7.04
11,CCCn1nc(C(OC)OC)nc1Cc1ccc(-c2ccccc2-c2nnn[nH]2)nc1 [Compound 174],7.02
12,CCCCn1nc(C(OCC)OCC)nc1Cc1ccc(-c2ccccc2-c2nnn[nH]2)nc1 [Compound 176],7.55
13,CCCCn1nc(C(OC(C)C)OC(C)C)nc1Cc1ccc(-c2ccccc2-c2nnn[nH]2)nc1 [Compound 178],7.47
14,CCCCc1nc(CCCC)n(Cc2ccc(-c3ccccc3-c3nnn[nH]3)cn2)n1 [Compound 239],8.01
15,CCCc1nc(CCC)n(Cc2ccc(-c3ccccc3-c3nnn[nH]3)nc2)n1 [Compound 246],7.59
16,CCCCc1nc(C(F)(F)CCC)nn1Cc1ccc(-c2ccccc2-c2nnn[nH]2)nc1 [Compound 247],8.41
17,CCCCc1nc(C(F)(F)CCC)n(Cc2ccc(-c3ccccc3-c3nnn[nH]3)nc2)n1 [Compound 248],7.50
18,CCCCc1nc(C(=O)N(C)C(C)(C)C)nn1Cc1ccc(-c2ccccc2-c2nnn[nH]2)nc1 [Compound 255],7.46
19,CCCCc1nc(C(=O)NC)nn1Cc1ccc(-c2ccccc2-c2nnn[nH]2)nc1 [Compound 257],6.68
20,CCCCc1nc(C)nn1Cc1ccc(-c2ccccc2C(=O)O)cc1 [Compound 280],6.35
